Source: patent US9695155B2, “Herbicidal substituted pyrimidinyloxy benzene compounds” (E. I. DU PONT DE NEMOURS AND COMPANY, priority 2013, dated 2017)

Assays:
deadnettle = test: Test C postemergence; assay type: in vivo, Lamium amplexicaule; conditions: for Plant response rating (0 to 100), Deadnettle: postemergence; for Plant response rating, Deadnettle: Postemergence, scale 0 to 100 (0 no effect, 100 complete control)
From the text: Seeds of plant species selected from blackgrass (Alopecurus myosuroides), Italian ryegrass (Lolium multiflorum), wheat, winter (winter wheat, Triticum aestivum), galium (catchweed bedstraw, Galium aparine), corn (Zea mays), large (Lg) crabgrass (Digitaria sanguinalis), giant foxtail (Setaria faberii), johnsongrass (Sorghum halepense), lambsquarters (Chenopodium album), morningglory (Ipomoea coccinea), yellow nutsedge (Cyperus esculentus), pigweed (Amaranthus retroflexus), ragweed (common ragweed, Ambrosia elatior), soybean (Glycine max), barnyardgrass (Echinochloa crus-galli), oilseed rape (Brassica napus), waterhemp (common waterhemp, Amaranthus rudis), kochia (Kochia scoparia), wild oat (Avena fatua), surinam grass (Brachiaria decumbens), foxtail, green (green foxtail, Setaria viridis), goosegrass (Eleusine indica), bromegrass, downy (downy bromegrass, Bromus tectorum), nightshade (eastern black nightshade, Solanum ptycanthum), cocklebur (common cocklebur, Xanthium strumarium), cupgrass, woolly (woolly cupgrass, Eriochloa villosa), bermudagrass (Cynodon dactylon), sunflower, (common oilseed sunflower, Helianthus annuus), Russian thistle (Salsola kali), and velvetleaf (Abutilon theophrasti) were planted into a blend of loam soil and sand and treated preemergence with test chemicals formulated in a non-phytotoxic solvent mixture which included a surfactant.
At the same time, plants selected from these crop and weed species and also barley, winter (winter barley, Hordeum vulgare), windgrass (Apera spica-venti), chickweed (common chickweed, Stellaria media), deadnettle (henbit deadnettle, Lamium amplexicaule), and canarygrass (littleseed canarygrass, Phalaris minor) were planted in pots containing Redi-Earth® planting medium (Scotts Company, 14111 Scottslawn Road, Marysville, Ohio 43041) comprising spaghnum peat moss, vermiculite, wetting agent and starter nutrients and treated with postemergence applications of test chemicals formulated in the same manner. Plants ranged in height from 2 to 18 cm (1- to 4-leaf stage) for postemergence treatments. Treated plants and controls were maintained in a greenhouse for 13 to 15 days, after which time all species were compared to controls and visually evaluated. Plant response ratings, summarized in Table C, are based on a scale of 0 to 100 where 0 is no effect and 100 is complete control. A dash (-) response means no test result.

hardstem bulrush = test: Test G flood (paddy water application); assay type: in vivo, Scirpus juncoides; conditions: after 21 days, scale 0 to 100, 0 no effect, 100 complete control
From the text: (§1) Three plastic pots (ca. 16-cm diameter) per rate were partially filled with sterilized Tama silt loam soil comprising a 35:50:15 ratio of sand, silt and clay and 2.6% organic matter. Separate plantings for each of the three pots were as follows. Seeds from the U.S. of monochoria (Monochoria vaginalis), sedge, umbrella (small-flower umbrella sedge, Cyperus difformis), hardstem bulrush (Scirpus juncoides), and redstem (purple redstem, Ammannia coccinea), were planted into one 16-cm pot for each rate. Seeds from the U.S. of rice flatsedge (Cyperus iria), bearded sprangletop (Leptochloa fascicularis), one stand of 9 or 10 water seeded rice seedlings (Oryza sativa cv. ‘Japonica—M202’), and two stands of 3 or 4 transplanted rice seedlings (Oryza sativa cv. ‘Japonica—M202’) were planted into one 16-cm pot for each rate. Seeds from the U.S. of barnyardgrass (Echinochloa crus-galli), and late watergrass (Echinochloa oryzicola) were planted into one 16-cm pot for each rate. Plantings were sequential so that crop and weed species were at the 2.0 to 2.5-leaf stage at time of treatment.
(§2) Potted plants were grown in a greenhouse with day/night temperature settings of 30/27° C., and supplemental balanced lighting was provided to maintain a 16-hour photoperiod. Test pots were maintained in the greenhouse until test completion.
(§3) At time of treatment, test pots were flooded to 3 cm above the soil surface, treated by application of test compounds directly to the paddy water, and then maintained at that water depth for the duration of the test. Effects of treatments on rice and weeds were visually evaluated by comparison to untreated controls after 21 days. Plant response ratings, summarized in Table G, are based on a scale of 0 to 100 where 0 is no effect and 100 is complete control. A dash (-) response means no test result.

rice flatsedge = test: Test G flood (paddy water application); assay type: in vivo, Cyperus iria; conditions: after 21 days, scale 0 to 100, 0 no effect, 100 complete control
From the text: as §1, §2, §3

redstem = test: Test G flood (paddy water application); assay type: in vivo, Ammannia coccinea; conditions: after 21 days, scale 0 to 100, 0 no effect, 100 complete control
From the text: as §1, §2, §3

late watergrass = test: Test G flood (paddy water application); assay type: in vivo, Echinochloa oryzicola; conditions: after 21 days, scale 0 to 100, 0 no effect, 100 complete control
From the text: as §1, §2, §3

smartweed = test: Test E preemergence; assay type: in vivo, ladysthumb smartweed; conditions: for Smartweed plant response rating: scale 0 to 100 (0 no effect, 100 complete control); for Plant response rating, Smartweed: scale 0 to 100, 0 no effect, 100 complete control
From the text: Seeds of plant species selected from corn (Zea mays), soybean (Glycine max), velvetleaf (Abutilon theophrasti), lambsquarters (Chenopodium album), wild poinsettia (Euphorbia heterophylla), palmer pigweed (Amaranthus palmeri), waterhemp (common waterhemp, Amaranthus rudis), surinam grass (Brachiaria decumbens), large (Lg) crabgrass (Digitaria sanguinalis), Brazilian crabgrass (Digitaria horizontalis), fall panicum (Panicum dichotomiflorum), giant foxtail (Setaria faberii), green foxtail (Setaria viridis), goosegrass (Eleusine indica), johnsongrass (Sorghum halepense), ragweed (common ragweed, Ambrosia elatior), barnyardgrass (Echinochloa crus-galli), sandbur (southern sandbur, Cenchrus echinatus), arrowleaf sida (Sida rhombifolia), Italian ryegrass (Lolium multiflorum), dayflower (Virginia (VA) dayflower, Commelina virginica), field bindweed (Convolvulus arvensis), morningglory (Ipomoea coccinea), nightshade (eastern black nightshade, Solanum ptycanthum), kochia (Kochia scoparia), yellow nutsedge (Cyperus esculentus), cocklebur (common cocklebur, Xanthium strumarium), smartweed (ladysthumb smartweed, and hairy beggarticks (Bidens pilosa), were planted into a silt loam soil and treated preemergence with test chemicals formulated in a non-phytotoxic solvent mixture which included a surfactant.
At the same time, plants from these crop and weed species and also horseweed (Canada horseweed, Conyza canadensis), waterhemp_RES1, (ALS & Triazine resistant common waterhemp, Amaranthus rudis), and waterhemp_RES2, (ALS & HPPD resistant common waterhemp, Amaranthus rudis) were planted in pots containing Redi-Earth® planting medium (Scotts Company, 14111 Scottslawn Road, Marysville, Ohio 43041) comprising spaghnum peat moss, vermiculite, wetting agent and starter nutrients were treated with postemergence applications of test chemicals formulated in the same manner. Plants ranged in height from 2 to 18 cm for postemergence treatments (1- to 4-leaf stage). Treated plants and controls were maintained in a greenhouse for 14 to 21 days, after which time all species were compared to controls and visually evaluated. Plant response ratings, summarized in Table E, are based on a scale of 0 to 100 where 0 is no effect and 100 is complete control. A dash (-) response means no test result.

| SMILES | Plant response rating (0 to 100), Deadnettle (deadnettle; 125 g ai/ha) | Plant response rating (0 to 100), Deadnettle (deadnettle; 250 g ai/ha) | Plant response rating, Deadnettle (deadnettle; 31 g ai/ha, 13 to 15 days) | Plant response rating, Deadnettle (deadnettle; 62 g ai/ha) | Plant response rating, Bulrush, Hardstem (hardstem bulrush; 32 g ai/ha) | Plant response rating, Bulrush, Hardstem (hardstem bulrush; 64 g ai/ha) | Plant response rating, Bulrush, Hardstem (hardstem bulrush; 125 g ai/ha) | Plant response rating, Bulrush, Hardstem (hardstem bulrush; 250 g ai/ha) | Plant response rating, Flatsedge, Rice (rice flatsedge; 32 g ai/ha) | Plant response rating, Flatsedge, Rice (rice flatsedge; 64 g ai/ha) | Plant response rating, Flatsedge, Rice (rice flatsedge; 125 g ai/ha) | Plant response rating, Flatsedge, Rice (rice flatsedge; 250 g ai/ha) | Plant response rating, Redstem (redstem; 32 g ai/ha) | Plant response rating, Redstem (redstem; 64 g ai/ha) | Plant response rating, Redstem (redstem; 125 g ai/ha) | Plant response rating, Redstem (redstem; 250 g ai/ha) | Plant response rating, Watergrass, Late (late watergrass; 32 g ai/ha) | Plant response rating, Watergrass, Late (late watergrass; 64 g ai/ha) | Plant response rating, Watergrass, Late (late watergrass; 125 g ai/ha) | Plant response rating, Watergrass, Late (late watergrass; 250 g ai/ha) | further results |
| --- | --- | --- | --- | --- | --- | --- | --- | --- | --- | --- | --- | --- | --- | --- | --- | --- | --- | --- | --- | --- | --- |
| Clc1cnc(Oc2ccccc2-n2cc(Br)cn2)nc1 [Compound 7, 2-[2-(4-bromo-1H-pyrazol-1-yl)phenoxy]-5-chloropyrimidine] | 98 | 100 | 85 | 98 | – | – | – | – | – | – | – | – | – | – | – | – | – | – | – | – | – |
| Fc1cnc(Oc2ccccc2-n2cc(Br)cn2)nc1 [Compound 10, 2-[2-(4-bromo-1H-pyrazol-1-yl)phenoxy]-5-fluoropyrimidine] | 80 | 95 | 50 | 60 | – | – | – | – | – | – | – | – | – | – | – | – | – | – | – | – | – |
| FC(F)(F)c1cnn(-c2ccccc2Oc2ncc(Cl)cn2)c1 [Compound 16] | – | – | – | – | 40 | 50 | 65 | 80 | 40 | 85 | 100 | 100 | 0 | 60 | 85 | 95 | 0 | 0 | 0 | 80 | – |
| FC(F)(F)c1cnn(-c2ccccc2Oc2ncc(Br)cn2)c1 [Compound 18, 5-bromo-2-[2-[4-(trifluoromethyl)-1H-pyrazol-1-yl]phenoxy]pyrimidine] | – | – | – | – | 0 | 0 | 0 | 85 | 30 | 75 | 100 | 100 | 0 | 0 | 75 | 90 | 0 | 0 | 0 | 70 | – |
| N#Cc1cccc(Oc2ncc(F)cn2)c1-n1cc(Cl)cn1 [Compound 73] | – | – | – | – | – | – | – | – | – | – | – | – | – | – | – | – | – | – | – | – | Smartweed plant response rating (smartweed; 16 g ai/ha): 0; Smartweed plant response rating (smartweed; 31 g ai/ha): 0; Smartweed plant response rating (smartweed; 62 g ai/ha): 20; Plant response rating, Smartweed (smartweed; 125 g ai/ha): 98; Plant response rating, Smartweed (smartweed; 250 g ai/ha): 98 |
| FC(F)c1cccc(Oc2ncc(Cl)cn2)c1-n1cc(Br)cn1 [Compound 194, 2-[2-(4-bromo-1H-pyrazol-1-yl)-3-(difluoromethyl)phenoxy]-5-chloropyrimidine] | – | – | – | – | – | – | – | – | – | – | – | – | – | – | – | – | – | – | – | – | Smartweed plant response rating (smartweed; 31 g ai/ha): 0; Smartweed plant response rating (smartweed; 62 g ai/ha): 90 |
